Test results reported in patent US20260070919A1, “CRYSTAL FORM OF FIVE-MEMBERED AND SIX-MEMBERED HETEROCYCLIC COMPOUND, PREPARATION METHOD THEREFOR, AND USE THEREOF” (BEIJING MAXINOVEL PHARMACEUTICALS CO., LTD., priority 2022, published 2026).

What was measured:
Type in all cases: physicochemical
[1] = Dynamic vapor sorption (DVS); conditions: for weight gain from 0% RH to 95% RH (moisture absorption): 25° C., weight percentage
Description: (§1) A sample of crystal form I of the compound represented by formula 1 (10 mg) was weighed, and dried for 60 minutes at a temperature of 25° C. and a humidity of 0% RH. The moisture absorption characteristics of the sample were tested as the humidity changed from 0% RH to 95% RH, and the desorption characteristics of the sample were tested as the humidity changed from 95% RH to 0% RH. The humidity change in each step was 5% RH, with an equilibrium criterion of a weight change rate of less than 0.01%/min within 5 minutes and a maximum equilibration time of 2 hours.
as §1, with “II” for “I”
as §1, with “III” for “I”

[2] = Stability test (influencing factors and accelerated conditions; HPLC, appearance, XRPD, DSC)
Description: Appropriate amounts of crystal form II and crystal form III of the compound represented by formula 1 were accurately weighed into 20 mL colorless transparent glass vials, which were placed under corresponding influencing factors (high temperature at 60° C., high humidity of 92.5% RH) and accelerated conditions (40° C./75% RH) respectively. After 1 week and 2 weeks, the samples were removed for HPLC analysis to determine the content and related substances, thereby evaluating the chemical stability of crystal form II and crystal form III. The samples were also characterized by appearance, XRPD, and DSC to assess the physical stability of the two crystal forms. Additionally, samples of crystal form II and crystal form III were accurately weighed into 20 mL colorless transparent glass vials, which were tightly sealed and stored in a −20° C. freezer as standard samples for HPLC analysis.

[3] = XRPD re-characterization of the precipitated sample after days
Description: 20 mg of the compound represented by formula 1 was weighed into a glass vial, which was placed in a 50° C. water bath with a rotational speed of 400 rpm. 90 times the volume of ethyl acetate as good solvent was added to the vial, and the mixture was heated to obtain a clarified solution, which was maintained at the same temperature for 15 minutes. 70 times the volume of n-heptane as anti-solvent was slowly added dropwise thereto under stirring to precipitate a solid, and the mixture was stirred for another 10 minutes. A sample was taken and centrifuged, naturally dried, and characterized by XRPD as crystal form II.
Following the same operational procedure as in method 3, crystal form II was also obtained by using the good solvent and anti-solvent listed in the table below.
Method: An appropriate amount of sample was taken and spread evenly on a single-crystal silicon wafer, and XRPD testing was conducted at room temperature. The specific experimental parameters were as follows: the light source was CuKα, the X-ray intensity was 40 kV/40 mA, the scanning mode was Theta-theta, the scanning angle range was 4° to 40°, the step size was 0.05°, and the scanning speed was 0.5 seconds per step.

[4] = after 2 weeks under −20° C., high temperature, high humidity, light, and accelerated conditions

Compound | weight gain from 0% RH to 95% RH (moisture absorption) [1] | Appearance ([2]; Accelerated (40° C./75%)) | Appearance ([2]; High humidity (92.5% RH)) | Appearance ([2]; High temperature (60° C.)) | chemical stability [2, 4] | physical stability (crystal form conversion) [2, 4] | Appearance ([2]; control group, −20° C.) | hygroscopicity (in words) ([1]; 0% RH to 95% RH) | physicochemical stability ([2]; −20° C., high temperature, high humidity, and accelerated conditions) | crystal form by XRPD after standing ([3]; after 6 days, good solvent / methyl tert-butyl ether) | crystal form by XRPD after standing ([3]; after 8 days, ethyl acetate / n-heptane)
CCS(=O)(=O)N1CC(CC#N)(n2cc(-c3nc(Nc4cnn(C)c4)nc4ccsc34)cn2)C1 [Crystal form III] | 0.4084% | Bright yellow | Bright yellow | Bright yellow | good chemical stability | partial conversion of crystal form III to crystal form II | Bright yellow |  |  |  | 
CCS(=O)(=O)N1CC(CC#N)(n2cc(-c3nc(Nc4cnn(C)c4)nc4ccsc34)cn2)C1 [Crystal form II] | 0.1047% | Yellow | Yellow | Yellow |  |  | Yellow | almost no hygroscopicity | good physicochemical stability | remained as crystal form II | remained as crystal form II
CCS(=O)(=O)N1CC(CC#N)(n2cc(-c3nc(Nc4cnn(C)c4)nc4ccsc34)cn2)C1 [Crystal form I] | 3.025% |  |  |  |  |  |  |  |  |  | 
